Consider one molecule from patent publication US10072014B2 (Janssen Pharmaceutica NV, priority 2014, dated 2018).

The test system of one series is Wiga Wistar rats. Kind of series: Reversal of LY-404039-induced decrease of palpebral opening in apomorphine-challenged rats. To be noted: Rattus norvegicus, PO, criterion: cumulative palpebral opening score >26, read-out: ED50 APO LY-404039. In kind it is in vivo. How it is done: B) In Vivo Pharmacology 1) Reversal of LY-404039-induced Decrease of Palpebral Opening in Apomorphine-challenged Rats.
Male Wiga Wistar rats (Crl:WI; Charles River Germany; 220±40 g) were housed under standard laboratory conditions (21±2° C.; 50-65% relative humidity; light-dark cycle set at 12 h; lights on at 6.00 h) and fasted overnight prior to the start of the experiments (tap water remained available ad libitum). During the test period, they were housed in individual cages. Palpebral opening was scored every 5 min over the first hour after injection of apomorphine (1.0 mg/kg, i.v.) in animals either pretreated or not pretreated with LY-404039 (2.5 mg/kg, s.c.) at 1 h prior to the apomorphine injection. The animals were also pretreated with test compound or solvent at a predefined interval before apomorphine challenge. The score system was: (5) exophthalmos, (4) wide open, (3) open for three-quarters, (2) half open, (1) open for one-quarter, (0) closed. The scores for palpebral opening were cumulated over the 60-min observation period. A cumulative palpebral opening score>26 was selected for drug-induced reversal of the LY-404039-induced decrease of palpebral opening (occurrence in 3.2% of control animals pretreated with LY-404039 (n=154) versus in 99.5% of control rats not pretreated with LY-404039 (n=6335)). […]

A short description of another series: Induction of mydriasis. To be noted: Wiga, rat, in vivo, PO, rats. The procedure:
3) Induction of Mydriasis
The pupil diameter of Wiga rats was measured with a microscopic micrometer (1 unit= 1/24 mm). Criteria for drug-induced effects: pupil diameter>25 units for mydriasis (in controls: 1.9%) 1 h post-administration of the test compound (test 1) or 1, 2 or 3 h post-administration of the test compound (test 2, wherein the maximum pupil diameter over the full 3 h period is reported).

One may read the ED50 as the dose that gives a 50% effect, or the effect in half of the subjects. Take `Cc1ncc(-c2cnn3c2C(=O)N(c2ccc(C(F)(F)F)c(Cl)c2)C[C@@H]3C)[nH]1` [Compound 27]: the ED50 with Wiga Wistar rats was 0.2 mg/kg; in “Induction of mydriasis” (maximum pupil diameter >25 units over 1, 2 or 3 h post-administration, read-out: ED50 MYD Test 2), more than 40 mg/kg. Also, the ED50 at 1 h in “Induction of mydriasis” (pupil diameter >25 units 1 h post-administration, read-out: ED50 MYD Test 1) is more than 10 mg/kg.
